The results in this text go back to patent publication US8278343B2, “Pyrrolidines” (Pfizer Inc., priority 2008, dated 2012).

A word on the Ki: it is a measure of affinity in units of concentration, obtained from inhibition or displacement.

This test deals with T1, recombinant human EP-2 receptor (Homo sapiens, UniProt P43116).
T1 construct: stably transfected with full length cDNA encoding human Prostaglandin E2; expressed in transfected cells
T1 sequence (P43116 whole entry): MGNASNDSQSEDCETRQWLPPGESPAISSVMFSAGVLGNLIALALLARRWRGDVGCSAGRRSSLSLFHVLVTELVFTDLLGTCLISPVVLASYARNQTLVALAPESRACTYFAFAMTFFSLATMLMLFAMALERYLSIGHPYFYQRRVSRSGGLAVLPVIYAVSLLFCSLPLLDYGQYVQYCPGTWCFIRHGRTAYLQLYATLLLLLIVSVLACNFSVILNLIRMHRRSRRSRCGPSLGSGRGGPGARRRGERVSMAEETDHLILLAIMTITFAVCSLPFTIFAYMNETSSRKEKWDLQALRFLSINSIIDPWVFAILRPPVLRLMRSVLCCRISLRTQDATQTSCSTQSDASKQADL
The experiment in a line: In vitro antagonist potency against recombinant human prostaglandin E2 (EP-2) receptor in CHO cells (cAMP, Protocol 1). It is filed as cell-based. The settings on record: CHO cells expressing recombinant human EP-2 receptor, stimulated with 5 nM PGE2; cAMP readout; Ki by Cheng-Prusoff equation; read-out: EP2 Ki. On the procedure:
1.0 Measurement of In Vitro Antagonist Potency (IC50) of Compounds Against Recombinant Human Prostaglandin E2 Receptor in CHO Cells
The prostaglandin E2 (EP-2) receptor is Gs coupled and agonism of the receptor by PGE2 results in activation of intracellular adenylate cyclase enzymes that synthesise the second messenger signalling molecule, adenosine 3′,5′-cyclic monophosphate (cAMP). CHO cells expressing the recombinant human EP-2 receptor are stimulated with PGE2 (5 nM) equivalent to approximately […] values to give the maximal cAMP signal. Decreases in cAMP levels following treatment of stimulated recombinant EP-2 cells with potential antagonist compounds were measured and potency (IC50) calculated as follows.
A Chinese hamster ovary (CHO) cell line stably transfected with full length cDNA encoding human Prostaglandin E2 was established using standard molecular biology methods. Test compounds were dissolved in dimethyl sulphoxide (DMSO) at 4 mM. 11 point half log unit increment dilution series of test compound were prepared in DMSO then diluted 1 in 40 in a buffer comprised of phosphate buffered saline (PBS) and 0.05% pluronic F-127 surfactant. Freshly cultured cells at 80-90% confluence were harvested and re-suspended in 90% growth media/10% DMSO. The cells were frozen using a planar freezer and stored in frozen aliquots in cryovials in liquid nitrogen until the day of the experiment. A vial of cells was defrosted in a 37° C. water bath for 2 min, then transferred to 10 ml of Dulbecco's Modified Eagle's Medium (DMEM). The cells were then centrifuged for 5 min at 1000 g and the pellet re-suspended at 1,000,000 cells/ml in DMEM. 5,000 cells (5 ul) were added to 5 ul of the compound dilution series in a 384 well assay plate and pre-incubated for 30 min at 37° C. 5 ul of agonist (15 nM PGE2 in PBS to give 5 nM FAC) was added and plates further incubated for 90 min at 37° C. The relative cAMP concentration in each well was then measured using a β-galactosidase enzyme fragment complementation method purchased in kit form as the Discoverx cAMP II kit from GE Healthcare, UK. […] Sigmoidal curves were fitted to plots of log10 inhibitor concentration vs percent effect. IC50 estimates were determined as the concentration of test compound giving an effect half way between the bottom and top asymptotes of the sigmoidal dose response curve. Each experiment included an IC50 determination for the literature compound as a standard to track assay consistency and allow fair comparison between values obtained in different experiments. The EC50 of PGE2 is used in combination with the ligand concentration in the assay to determine Ki values for antagonist dose responses using the Cheng-Prusoff equation. Consequently an agonist dose response curve is carried out for each experiment using the same incubation as the antagonist plate.
In the case of `COc1ccc(C(=O)N2CCC(COc3ccc(-c4ncc(Cl)cn4)cc3)(C(=O)O)C2)cc1` (single isomer, unassigned) [Example 42], the Ki turned out to be 2.93 nM.

For `O=C(c1ccc(F)cc1)N1CCC(COc2cnc(-c3ccc(Cl)cc3)cn2)(C(=O)O)C1` (single isomer, unassigned) [Example 10], the Ki worked out at 0.741 nM.

For `O=C(Nc1ccccc1F)N1CCC(COc2ccc(-c3ccc(F)cc3)cc2)(C(=O)O)C1` (single isomer, unassigned) [Example 103], the inhibition constant (Ki) was 3.77 nM.

For `N#Cc1ccc(-c2ccc(OCC3(C(=O)O)CCN(C(=O)c4ccc(Cl)cc4)C3)cc2)cc1` (single isomer, unassigned) [Example 26], the Ki was 0.0376 nM.

Regarding `COc1ccccc1C(=O)N1CCC(COc2ccc(-c3ccc(Cl)cc3)nc2)(C(=O)O)C1` (single isomer, unassigned) [Example 71], the Ki came out at 23.9 nM.

With `COc1ccc(C(=O)N2CCC(COc3ccc(-c4ccc(F)cc4)cc3)(C(=O)O)C2)cc1` (single isomer, unassigned) [Example 40], the Ki came out at 2.36 nM.

Turning to `O=C(c1ccc(Cl)cc1)N1CCC(COc2ccc(-c3ccc(F)cc3)cc2)(C(=O)O)C1` (single isomer, unassigned) [Example 37], the inhibitory constant (Ki) was determined as 30.3 nM.

As to `O=C(Oc1ccc(Cl)cc1)N1CCC(COc2ccc(-c3ccc(F)cc3)cc2)(C(=O)O)C1` (single isomer, unassigned) [Example 88], the Ki is 14.9 nM.

`CCOc1ccccc1C(=O)N1CCC(COc2ccc(-c3ccc(F)cc3)cc2)(C(=O)O)C1` (single isomer, unassigned) [Example 54]: the Ki amounted to 389 nM.

On to `O=C(c1ccc(Cl)cc1)N1CCC(COc2ccc(-c3ccc(Cl)cc3)nc2)(C(=O)O)C1` (single isomer, unassigned) [Example 33], for which the Ki worked out at 141 nM.

On to `O=C(C1CCCC1)N1CCC(COc2ccc(-c3ccc(F)cc3)cc2)(C(=O)O)C1` (single isomer, unassigned) [Example 81], for which the inhibition constant (Ki) was determined as 55.5 nM.

Consider `CCOc1ccccc1C(=O)N1CCC(COc2ccc(-c3ncc(Cl)cn3)cc2)(C(=O)O)C1` (single isomer, unassigned) [Example 56], for which the Ki turned out to be 466 nM.

Consider `O=C(Oc1ccc(Cl)cc1)N1CCC(COc2ccc(-c3ccc(F)cc3)cc2)(C(=O)O)C1` (single isomer, unassigned) [Example 89], for which the Ki came to 252 nM.

In the case of `CCOc1ccccc1C(=O)N1CCC(COc2cnc(-c3ccc(Cl)cc3)nc2)(C(=O)O)C1` (single isomer, unassigned) [Example 57], the inhibition constant Ki was 29.4 nM.

For `O=C(Nc1ccc(Cl)cc1)N1CCC(COc2ccc(-c3ccc(F)cc3)cc2)(C(=O)O)C1` (single isomer, unassigned) [Example 101], the Ki stood at 3.59 nM.

As for `Cc1ccc(OC(=O)N2CCC(COc3ccc(-c4ccc(F)cc4)cc3)(C(=O)O)C2)cc1` (single isomer, unassigned) [Example 86], the Ki came out at 5.36 nM.

Regarding `COc1ccccc1C(=O)N1CCC(COc2ccc(-c3ccc(C#N)cn3)cc2)(C(=O)O)C1` (centres unmarked) [Example 3, 3 ((4-(5-cyanopyridin-2-yl)phenoxy)methyl)-1-(2-methoxybenzoyl)pyrrolidine-3-carboxylic acid], the inhibition constant (Ki) is 24.4 nM.

Turning to `O=C(c1ccc(F)cc1)N1CCC(COc2ccc(-c3ncc(Cl)cn3)cc2)(C(=O)O)C1` (single isomer, unassigned) [Example 16], the Ki amounted to 0.692 nM.

Take `O=C(c1ccc(F)cc1)N1CCC(COc2cnc(-c3ccc(Cl)cc3)nc2)(C(=O)O)C1` (single isomer, unassigned) [Example 5]: the Ki was determined as 1.64 nM.

With `CCOc1ccccc1C(=O)N1CCC(COc2ccc(-c3ncc(Cl)cn3)cc2)(C(=O)O)C1` (single isomer, unassigned) [Example 55], the Ki was 28.9 nM.

In the case of `COc1ccc(OC(=O)N2CCC(COc3ccc(-c4ccc(F)cc4)cc3)(C(=O)O)C2)cc1` (single isomer, unassigned) [Example 92], the Ki was 7.81 nM.

On to `COc1ccccc1C(=O)N1CCC(COc2ccc(-c3ccc(C#N)cc3)nc2)(C(=O)O)C1` (single isomer, unassigned) [Example 62], for which the Ki was 868 nM.

Turning to `O=C(c1ccc(F)cc1)N1CCC(COc2cnc(-c3ccc(Cl)cc3)cn2)(C(=O)O)C1` (single isomer, unassigned) [Example 11], the Ki turned out to be 28.9 nM.

On to `COc1ccccc1OC(=O)N1CCC(COc2ccc(-c3ccc(F)cc3)cc2)(C(=O)O)C1` (single isomer, unassigned) [Example 94], for which the Ki came out at 431 nM.

In the case of `CCOc1ccccc1C(=O)N1CCC(COc2cnc(-c3ccc(Cl)cc3)cn2)(C(=O)O)C1` (single isomer, unassigned) [Example 51], the Ki turned out to be 19.3 nM.

With `O=C(Oc1ccc(F)cc1)N1CCC(COc2ccc(-c3ccc(F)cc3)cc2)(C(=O)O)C1` (single isomer, unassigned) [Example 90], the Ki is 4.16 nM.

Turning to `COc1ccc(OC(=O)N2CCC(COc3ccc(-c4ccc(F)cc4)cc3)(C(=O)O)C2)cc1` (single isomer, unassigned) [Example 93], the Ki came out at 165 nM.

Regarding `COc1ccc(C(=O)N2CCC(COc3cnc(-c4ccc(Cl)cc4)nc3)(C(=O)O)C2)cc1` (single isomer, unassigned) [Example 50], the Ki came out at 1.88 nM.

As to `COc1ccccc1C(=O)N1CCC(COc2ccc(-c3ccc(F)cc3)cc2)(C(=O)O)C1` (single isomer, unassigned) [Example 69], the Ki stood at 309 nM.

For `O=C(c1ccc(F)cc1)N1CCC(COc2ccc(-c3ccc(Cl)cn3)cc2)(C(=O)O)C1` (single isomer, unassigned) [Example 13], the Ki amounted to 333 nM.

In the case of `COc1ccccc1C(=O)N1CCC(COc2cnc(-c3ccc(Cl)cc3)cn2)(C(=O)O)C1` (single isomer, unassigned) [Example 59], the Ki was found to be 98.1 nM.

Take `COc1ccc(C(=O)N2CCC(COc3cnc(-c4ccc(Cl)cc4)cn3)(C(=O)O)C2)cc1` (single isomer, unassigned) [Example 38]: the Ki was determined as 3.08 nM.

For `COc1ccc(C(=O)N2CCC(COc3cnc(-c4ccc(Cl)cc4)nc3)(C(=O)O)C2)cc1` (single isomer, unassigned) [Example 49], the Ki turned out to be 124 nM.

For `COc1ccc(NC(=O)N2CCC(COc3ccc(-c4ccc(F)cc4)cc3)(C(=O)O)C2)cc1` (single isomer, unassigned) [Example 95], the Ki amounted to 1.03 nM.

Regarding `COc1ccccc1C(=O)N1CCC(COc2ccc(-c3ncc(F)cn3)cc2)(C(=O)O)C1` (single isomer, unassigned) [Example 64], the Ki worked out at 621 nM.

For the compound `COc1cccc(NC(=O)N2CCC(COc3ccc(-c4ccc(F)cc4)cc3)(C(=O)O)C2)c1` (single isomer, unassigned) [Example 97], the Ki came out at 1.89 nM.

Consider `Cc1ccc(OC(=O)N2CCC(COc3ccc(-c4ccc(F)cc4)cc3)(C(=O)O)C2)cc1` (single isomer, unassigned) [Example 87], for which the inhibition constant Ki amounted to 225 nM.

In the case of `COc1ccccc1C(=O)N1CCC(COc2cnc(-c3ccc(Cl)cc3)nc2)(C(=O)O)C1` (single isomer, unassigned) [Example 74], the Ki was 35.6 nM.

Take `O=C(c1ccc(F)cc1)N1CCC(COc2ccc(-c3ccc(Cl)cn3)cc2)(C(=O)O)C1` (single isomer, unassigned) [Example 12]: the Ki was 4.82 nM.

With `O=C(c1ccc(F)cc1)N1CCC(COc2ccc(-c3ccc(Cl)cc3)nc2)(C(=O)O)C1` (single isomer, unassigned) [Example 7], the Ki was determined as 2.97 nM.

As to `O=C(c1ccc(F)cc1)N1CCC(COc2ccc(F)c(Cl)c2)(C(=O)O)C1` (single isomer, unassigned) [Example 25], the Ki was 192 nM.

Regarding `O=C(Nc1ccccc1Cl)N1CCC(COc2ccc(-c3ccc(F)cc3)cc2)(C(=O)O)C1` (single isomer, unassigned) [Example 99], the Ki turned out to be 1.99 nM.

Take `O=C(c1ccc(F)cc1)N1CCC(COc2cnc(-c3ccc(Cl)cc3)nc2)(C(=O)O)C1` (single isomer, unassigned) [Example 6]: the Ki came to 102 nM.

`COc1cccc(NC(=O)N2CCC(COc3ccc(-c4ccc(F)cc4)cc3)(C(=O)O)C2)c1` (single isomer, unassigned) [Example 98]: the Ki amounted to 260 nM.
